# Earlier results as cited in PMC9851200, “Multiparameter phenotypic screening for endogenous TFEB and TFE3 translocation identifies novel chemical series modulating lysosome function” (Autophagy, 2022).
# Columns and labels:
# Design in all cases: method as in original PKIS2 published data
# [1] = molecular target: T1, kinases (KINOMEscan panel) (Homo sapiens, UniProt O14920); conditions: cited from earlier work
# T1 sequence (O14920 1-756): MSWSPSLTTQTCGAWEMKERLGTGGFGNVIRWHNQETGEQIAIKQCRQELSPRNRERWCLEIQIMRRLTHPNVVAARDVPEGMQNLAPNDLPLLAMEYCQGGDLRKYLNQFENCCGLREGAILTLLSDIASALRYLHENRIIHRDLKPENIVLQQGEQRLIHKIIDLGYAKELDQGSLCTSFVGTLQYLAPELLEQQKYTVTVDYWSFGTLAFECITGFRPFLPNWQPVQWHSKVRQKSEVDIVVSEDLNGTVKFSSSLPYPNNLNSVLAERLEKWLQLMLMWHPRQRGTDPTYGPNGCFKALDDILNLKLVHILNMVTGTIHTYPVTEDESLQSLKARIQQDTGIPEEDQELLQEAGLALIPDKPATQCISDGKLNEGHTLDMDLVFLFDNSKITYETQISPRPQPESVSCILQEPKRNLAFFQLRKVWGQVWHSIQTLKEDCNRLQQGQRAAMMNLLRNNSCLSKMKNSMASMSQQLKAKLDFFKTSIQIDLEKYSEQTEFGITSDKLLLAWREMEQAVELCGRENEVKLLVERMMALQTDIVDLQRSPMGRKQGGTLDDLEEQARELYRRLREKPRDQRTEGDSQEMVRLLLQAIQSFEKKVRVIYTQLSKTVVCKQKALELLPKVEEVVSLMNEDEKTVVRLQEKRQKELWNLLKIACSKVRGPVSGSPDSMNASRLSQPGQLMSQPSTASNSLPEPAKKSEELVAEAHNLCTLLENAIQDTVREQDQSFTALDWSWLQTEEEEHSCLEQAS
# [2] = molecular target: kinases (KINOMEscan panel) (Homo sapiens, UniProt P07949); conditions: kinase RET; Published KINOMEscan; ref original PKIS2 published data; cited from earlier work
# Sequence of kinases (KINOMEscan panel) (Homo sapiens, UniProt P07949) (P07949 29-1114): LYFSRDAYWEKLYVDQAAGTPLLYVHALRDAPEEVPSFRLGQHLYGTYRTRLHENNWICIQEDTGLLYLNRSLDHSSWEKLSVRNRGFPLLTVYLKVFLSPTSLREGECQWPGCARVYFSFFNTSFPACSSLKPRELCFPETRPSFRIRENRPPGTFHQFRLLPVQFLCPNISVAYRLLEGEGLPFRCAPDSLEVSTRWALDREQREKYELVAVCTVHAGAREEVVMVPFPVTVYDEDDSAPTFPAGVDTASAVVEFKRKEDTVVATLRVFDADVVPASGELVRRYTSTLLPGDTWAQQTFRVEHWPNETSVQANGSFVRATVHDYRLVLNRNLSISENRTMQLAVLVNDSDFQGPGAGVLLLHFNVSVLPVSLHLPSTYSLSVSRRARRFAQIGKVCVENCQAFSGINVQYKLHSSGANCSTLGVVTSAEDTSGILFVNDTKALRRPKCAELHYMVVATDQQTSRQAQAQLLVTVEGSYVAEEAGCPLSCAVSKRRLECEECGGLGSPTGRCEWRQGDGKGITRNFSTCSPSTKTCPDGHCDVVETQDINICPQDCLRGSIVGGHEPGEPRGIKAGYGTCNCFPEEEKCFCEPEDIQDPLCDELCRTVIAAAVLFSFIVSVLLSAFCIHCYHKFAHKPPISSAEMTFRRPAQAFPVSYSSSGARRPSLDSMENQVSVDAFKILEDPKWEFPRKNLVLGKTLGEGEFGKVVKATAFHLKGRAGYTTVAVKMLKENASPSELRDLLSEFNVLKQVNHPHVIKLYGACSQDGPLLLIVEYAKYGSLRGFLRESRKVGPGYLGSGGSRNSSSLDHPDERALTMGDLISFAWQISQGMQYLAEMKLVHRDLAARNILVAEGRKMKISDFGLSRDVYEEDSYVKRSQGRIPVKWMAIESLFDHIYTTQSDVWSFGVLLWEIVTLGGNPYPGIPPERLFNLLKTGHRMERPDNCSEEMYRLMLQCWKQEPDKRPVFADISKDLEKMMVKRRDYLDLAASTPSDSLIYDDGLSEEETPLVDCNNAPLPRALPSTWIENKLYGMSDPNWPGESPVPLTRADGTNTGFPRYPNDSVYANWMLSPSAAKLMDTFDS
# [3] = molecular target: kinases (KINOMEscan panel) (Homo sapiens, UniProt Q96NX5); conditions: CAMK1G; Published KINOMEscan; ref original PKIS2 published data; cited from earlier work
# Sequence of kinases (KINOMEscan panel) (Homo sapiens, UniProt Q96NX5) (Q96NX5 whole entry): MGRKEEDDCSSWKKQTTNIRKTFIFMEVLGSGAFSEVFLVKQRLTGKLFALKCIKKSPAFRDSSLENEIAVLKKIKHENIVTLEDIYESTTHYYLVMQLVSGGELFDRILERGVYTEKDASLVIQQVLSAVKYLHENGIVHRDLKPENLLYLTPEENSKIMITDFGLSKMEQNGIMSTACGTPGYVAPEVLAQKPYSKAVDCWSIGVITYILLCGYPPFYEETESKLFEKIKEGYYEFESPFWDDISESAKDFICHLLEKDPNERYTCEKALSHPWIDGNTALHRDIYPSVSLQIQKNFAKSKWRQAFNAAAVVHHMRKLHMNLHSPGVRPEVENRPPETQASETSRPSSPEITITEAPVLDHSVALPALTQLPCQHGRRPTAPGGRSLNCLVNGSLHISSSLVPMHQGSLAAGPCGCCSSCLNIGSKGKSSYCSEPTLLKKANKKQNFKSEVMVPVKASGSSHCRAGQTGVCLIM
# [4] = molecular target: T2, kinases (KINOMEscan panel) (Homo sapiens, UniProt Q6ZN16); conditions: Published KINOMEscan; ref original PKIS2 published data; cited from earlier work
# T2 sequence (Q6ZN16 1-1313): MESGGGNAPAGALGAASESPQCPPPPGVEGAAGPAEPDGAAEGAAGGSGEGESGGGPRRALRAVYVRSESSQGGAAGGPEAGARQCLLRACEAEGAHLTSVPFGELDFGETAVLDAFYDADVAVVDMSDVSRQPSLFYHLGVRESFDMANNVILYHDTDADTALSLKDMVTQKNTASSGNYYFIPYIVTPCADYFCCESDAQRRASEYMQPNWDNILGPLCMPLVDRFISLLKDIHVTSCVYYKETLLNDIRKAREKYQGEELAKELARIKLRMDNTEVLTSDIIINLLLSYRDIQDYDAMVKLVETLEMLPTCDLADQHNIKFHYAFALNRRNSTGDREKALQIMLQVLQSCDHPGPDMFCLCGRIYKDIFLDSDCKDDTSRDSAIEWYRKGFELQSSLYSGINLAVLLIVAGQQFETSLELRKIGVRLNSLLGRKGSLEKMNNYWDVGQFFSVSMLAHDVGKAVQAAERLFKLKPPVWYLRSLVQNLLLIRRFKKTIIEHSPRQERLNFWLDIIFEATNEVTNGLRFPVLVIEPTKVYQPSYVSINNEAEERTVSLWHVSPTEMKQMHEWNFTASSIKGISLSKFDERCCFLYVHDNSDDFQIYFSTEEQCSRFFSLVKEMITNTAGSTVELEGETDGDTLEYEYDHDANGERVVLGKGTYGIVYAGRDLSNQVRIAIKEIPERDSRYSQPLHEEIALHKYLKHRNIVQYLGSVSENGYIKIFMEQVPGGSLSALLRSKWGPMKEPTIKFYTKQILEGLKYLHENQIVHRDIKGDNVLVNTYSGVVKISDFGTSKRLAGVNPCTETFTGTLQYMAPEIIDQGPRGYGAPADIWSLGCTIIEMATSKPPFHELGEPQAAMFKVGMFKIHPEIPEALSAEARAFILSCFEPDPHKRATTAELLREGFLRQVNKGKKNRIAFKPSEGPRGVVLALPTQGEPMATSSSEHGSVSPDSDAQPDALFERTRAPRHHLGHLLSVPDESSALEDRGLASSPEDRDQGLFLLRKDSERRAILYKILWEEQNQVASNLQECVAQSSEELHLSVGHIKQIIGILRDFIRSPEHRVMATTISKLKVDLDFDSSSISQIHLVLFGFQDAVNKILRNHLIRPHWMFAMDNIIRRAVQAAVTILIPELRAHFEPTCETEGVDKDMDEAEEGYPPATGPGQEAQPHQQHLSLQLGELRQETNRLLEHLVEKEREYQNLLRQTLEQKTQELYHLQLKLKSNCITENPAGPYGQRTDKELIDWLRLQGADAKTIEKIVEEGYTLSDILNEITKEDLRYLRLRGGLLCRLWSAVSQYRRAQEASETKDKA
smiles,measurement,setting,value
Cc1cccc(-c2nc(Nc3ccncc3)c3ccccc3n2)n1 [NK215],KINOMEscan IKBKB/IKK-beta,[1],0
same,KINOMEscan RET,[2],9
same,KINOMEscan CAMK1G,[3],0
same,KINOMEscan MAP3K15,[4],0
